Experimental data reported in patent publication US11578110B2, “Compounds for inducing tissue formation and uses thereof” (HISTIDE AG, priority 2015, dated 2023).

What was measured:
hMSCs = assay: STRO-1 stemness marker expression in hMSCs (immunostaining, ImageJ quantification); type: cell-based, Human; details: SEQ ID NO: 1 to 49 tested in combination with a bioactive carrier (titanium, ceramics, PEEK, hydrogel, etc.)
How it was run: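 hMSCs exposed to GFR-binding peptides in solution or grafted on surfaces; cells fixed in 4% paraformaldehyde, permeabilized, stained with Stro-1 antibody (1 h, 37° C) plus Alexa Fluor secondary and DAPI. Stro-1 positive contact number and area quantified by thresholded image analysis, at least 30 cells per condition.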

[1] = Stability of non-covalent peptide coating on apatite ceramics / type-I collagen (fluorescent peptides); type: physicochemical; details: non-covalent coating on apatite ceramics (SEQ ID NO: 23) or type-I collagen sponge (SEQ ID NO: 22); 3, 7 or 10 days
Protocol: Non-covalent modifications of the materials were performed in Air Atmosphere at room temperature. The non-covalent coating strategy consisted in using a mixture of inducing peptide (SEQ ID NO: 23; concentration of 1×10^−3M) with an apatite ceramics implant or a mixture of inducing peptide (SEQ ID NO: 22; concentration of 1×10^−3M) with a type-I collagen sponge. The non-covalently coated conventional materials were characterized by using fluorescent peptides (Here SEQ ID NO: 22 and 23 covalently bound to fluorescein isothiocyanate (FITC), FIG. 6). The results shown here in FIG. 6 were obtained from experiments performed with apatite ceramics and a type-I collagen sponge. […] Indeed, after 3, 7 or 10 days, the osteogenic peptides were still coupled to the ceramics or the type-I collagen (FIGS. 7a and b).

Neurons = assay: Neuron growth on modified titanium (dendrite growth, GAP43 Q-PCR); type: cell-based; details: covalently modified titanium
Protocol: Total RNA was extracted by using the RNeasy total RNA kit (Qiagen®) according to the manufacturer's instructions. Purified total RNA was used as a template in order to make cDNA by a reverse transcription reaction (Gibco Brl®) with random primers (Invitrogen®). The cDNA was then used as a template for a real-time PCR amplification in the presence of SYBR green reagents (Bio-Rad®) by using a thermocycler (iCycler, Biorad®). Data were analyzed with the iCycler IQ™® software and compared by the ΔΔCt method. Briefly, the mean Ct value of the target gene was normalized to its averaged Ct values of the housekeeping gene (HPRT) to give a ΔCt value, which was then normalized to a control sample to obtain a ΔΔCt value.
Neurons were cultured on native titanium (control) and on titanium covalently modified with neurogenic peptides (SEQ ID NO: 49). […] To further confirm this the expression of the Growth Associated Protein 43 (GAP43) gene was verified for neuron cells cultured on materials covalently modified with neurogenic peptides (SEQ ID NO: 49).

[2] = test system: Human umbilical-vein endothelial cells; assay: Endothelialization: adherent junctions (CD31) of HUVECs on modified PET; type: cell-based; details: 36 hours, covalently modified PET
Protocol: An increase in the area of the adherent junctions (CD31) was observed after 36 hours of culture on the covalently modified PET (FIG. 13).

[3] = test system: Human Mesenchymal Stem Cells (hMSCs); assay: Osteogenic differentiation of human mesenchymal stem cells (Runx2, Osterix immunostaining, ALP activity); type: cell-based; details: 1 week, type-I collagen sponge coupled with peptide
[4] = test system: Human umbilical-vein endothelial cells; assay: Angiogenesis: tube-like structure formation of HUVECs on modified PET; type: cell-based; details: 18 hours, covalently modified PET
[5] = test system: mouse mesenchymal pre-osteoblastic cells (MC3T3-E1); assay: Osteogenic differentiation of osteoblast progenitors (extracellular matrix, Osteopontin, Runx2 Q-PCR); type: cell-based; details: 48 hours
Protocol: The surface profiler system is a non-contact optical profiler that measures a wide range of surface heights. The vertical scanning interferometry mode allows for the measurement of rough surfaces and steps of up to several micrometers. This mode was used in order to measure the thickness of the extracellular matrix produced by the cells. First, after 24 h of culture, the cells were fixed with paraformaldehyde in PBS (4%) for 30 minutes at 4° C. and the samples were dehydrated in increasing concentrations of ethanol (30, 70, 80, 90, 95 and 100%) and critical-point dried. To evaluate the extent of the newly synthesized extracellular matrix, a spatula was used to scratch the surface of the materials. The samples were then metallized for 10 sec with gold or titanium before being analyzed.
Total RNA was extracted by using the RNeasy total RNA kit (Qiagen®) according to the manufacturer's instructions. Purified total RNA was used as a template in order to make cDNA by a reverse transcription reaction (Gibco Brl®) with random primers (Invitrogen®). […] Data were analyzed with the iCycler IQ™® software and compared by the ΔΔCt method. […]
The effect of these GFR-binding compounds as defined herein (SEQ ID NO: 33) on the differentiation of osteoblast progenitors was evaluated. […]

Hair Follicle Stem Cells = assay: Activation of hair follicle stem cells on modified hydrogels (Sox2, BMP-6 release); type: cell-based, Mouse; details: hydrogel 73 kPa covalently modified

Question: For “WWFWGSAGPSSTPTKMSAISMLYL (WWFWGSAGPXXTPTKMSAISMLYL; GFR-binding peptide; MOD_RES (10)..(11): Xaa is C or S) [SEQ ID NO: 22]”, which STRO-1 expression (hMSCs) is on record?
Answer: Its STRO-1 expression is 29%.

Question: And the “release of peptides over time” value [1]?
Answer: Its value is “no significant release”.

Question: Which STRO-1 expression (hMSCs) does the source give for GIPEPSSVPAKMSPISILYI [SEQ ID NO: 49] here?
Answer: The STRO-1 expression was 19%.

Question: What about the “cell-cell contacts via dendrite growth” value (Neurons; 6 hours) of the same sequence?
Answer: Its value is “rapid establishment”.

Question: What about the GAP43 gene expression (Neurons; 48 hours, Q-PCR) of the same sequence?
Answer: Its GAP43 gene expression is “high level of expression”.

Question: Which STRO-1 expression (hMSCs) does the source give for STPPTSSSRVRLRSVKVAKV [SEQ ID NO: 38] here?
Answer: Its STRO-1 expression is 34%.

Question: And the “area of the adherent junctions (CD31)” value [2]?
Answer: Its value is “increase”.

Question: Which results are given for “GTPGPHVTKPTSVPTKLSAISMLYL (GTPGPHVTKPTXVPTKLSAISMLYL; GFR-binding peptide; MOD_RES (12)..(12): Xaa is C or S) [SEQ ID NO: 23]”?
Answer: STRO-1 expression (hMSCs): 28%; release of peptides over time [1]: no significant release

Question: Which STRO-1 expression (hMSCs) does the source give for “WWFWGAAPASSSVPTRLSPISVLYK (WWFWGAAPASXXVPTRLSPISVLYK; GFR-binding peptide; MOD_RES (11)..(12): Xaa is C or S) [SEQ ID NO: 32]” here?
Answer: Its STRO-1 expression is 27%.

Question: And the ALP activity [3]?
Answer: Its ALP activity is “increase”.

Question: For KVGKASSVPTKLSNITMQIM [SEQ ID NO: 39], which STRO-1 expression (hMSCs) is on record?
Answer: Its STRO-1 expression is 32%.

Question: And the “formation of tube-like structures” value [4]?
Answer: The value was “observed”.

Question: With “WWFWGKASKASSVPTKLSAISMLYL (WWFWGKASKAXXVPTKLSAISMLYL; GFR-binding peptide; MOD_RES (11)..(12): Xaa is C or S) [SEQ ID NO: 33]” as the sequence, how does the STRO-1 expression (hMSCs) read?
Answer: The STRO-1 expression was 26%.

Question: What about the “differentiation of osteoblast progenitors” value ([5]; apatite ceramics or type-I collagen sponge coupled with peptide) of the same sequence?
Answer: Its value is “differentiated into mature osteoblasts”.

Question: And the “production of extracellular matrix proteins such as Osteopontin (OPN)” value ([5]; vs native type-I collagen sponge, immunofluorescence)?
Answer: The value was “extensive amounts”.

Question: Which STRO-1 expression (hMSCs) does the source give for GSAGPSSVPEKMSSLSILFF [SEQ ID NO: 42] here?
Answer: The STRO-1 expression was 26%.

Question: And the “BMP-6 release in the cell culture medium” value (Hair Follicle Stem Cells)?
Answer: Its value is “decrease”.

Question: And the Sox2 protein expression (Hair Follicle Stem Cells)?
Answer: The Sox2 protein expression was “increase”.
